Laboratory results from US9580444B2, “Polycyclic pyrazolinone derivative and herbicide comprising same as effective component thereof” (priority 2013, dated 2017).

Assays:
Type in all cases: in vivo
[1] = tested on: Cyperus difformis (smallflower umbrella plant); assay: Test Example-1: herbicidal effect by a treatment before weeds are generated under submerged conditions; details: 500 g a.i/ha, pre-emergence treatment, about 15 days after treatment, score 0-5
In short: (§1)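 Paddy soil in cups was puddled, seeded with the weeds and kept flooded; compound as wettable powder or emulsifiable concentrate was diluted and applied into the water on the seeding day at a set dosage. Effect was scored about 15 days later on a 0–5 scale.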

[2] = tested on: other annual broad leaf weeds (Lindernia procumbens, Rotala indica, Elatine triandra); assay: as above; details: 500 g a.i/ha, pre-emergence treatment, about 15 days after treatment, score 0-5
In short: as §1

[3] = tested on: Echinochloa oryzicola (barnyard grass); assay: as above; details: 500 g a.i/ha, pre-emergence treatment, about 15 days after treatment, score 0-5
In short: as §1

[4] = tested on: Scirpus juncoides (bulrush); assay: as above; details: 500 g a.i/ha, pre-emergence treatment, about 15 days after treatment, score 0-5
In short: as §1

[5] = tested on: Eleocharis acicularis (needle spikerush); assay: as above; details: 500 g a.i/ha, pre-emergence treatment, about 15 days after treatment, score 0-5
In short: as §1

[6] = tested on: Monochoria vaginalis (monochoria); assay: as above; details: 500 g a.i/ha, pre-emergence treatment, about 15 days after treatment, score 0-5
In short: as §1

corn = assay: Test Example-4: phytotoxicity by a foliage treatment after weeds are generated under upland field conditions; details: 500 g a.i/ha, foliage treatment after emergence, about 14 days after treatment, score 0-5
From the text: (§2) Using the formulation prepared according to the methods described above, the herbicidal effect of the bicyclic pyrazolinone derivative of the invention according to the methods shown in Test Examples below was examined. The herbicidal effect with respect to the test weeds or the phytotoxicity with respect to the test crops was examined according to the following criteria, and evaluated in six stage scores of 0 to 5. A vat having an area of 65 cm^2 and a depth of 2 cm was filled with upland soil, then, seeds of Amaranthus viridis (green amaranthus), Abutilon theophrasti (velvetleaf), Chenopodium album (common lambsquarters), […]. While watering was suitably performed on there, the seeds were grown for 14 days. A wettable powder or an emulsifiable concentrate of the compound of the present invention prepared according to Formulation Example was diluted, and a spray treatment was uniformly performed on the foliage portion of the plant so as to be a predetermined dosage in the amount of water of 4000 L per hectare. The herbicidal effect with respect to the test weeds and the phytotoxicity with respect to corn about 14 days after the treatment were evaluated according to the evaluation criteria in six stages of 0 to 5 described above.

[7] = tested on: Amaranthus viridis (green amaranthus); assay: Test Example-4: herbicidal effect by a foliage treatment after weeds are generated under upland field conditions; details: 500 g a.i/ha, foliage treatment after emergence, about 14 days after treatment, score 0-5
From the text: as §2

[8] = tested on: Chenopodium album (common lambsquarters); assay: as above; details: 500 g a.i/ha, foliage treatment after emergence, about 14 days after treatment, score 0-5
From the text: as §2

[9] = tested on: Abutilon theophrasti (velvetleaf); assay: as above; details: 500 g a.i/ha, foliage treatment after emergence, about 14 days after treatment, score 0-5
From the text: as §2

SMILES	Herbicidal effect Cyperus difformis [1]	Herbicidal effect Broadleaf weed [2]	Herbicidal effect Echinochloa oryzicola [3]	Herbicidal effect Scirpus juncoides [4]	Herbicidal effect Eleocharis acicularis [5]	Herbicidal effect Monochoria vaginalis [6]	Phytotoxicity Corn (corn)	Herbicidal effect Amaranthus viridis [7]	Herbicidal effect Chenopodium album [8]	Herbicidal effect Abutilon theophrast [9]
C=CCCOc1cc(-c2c(Cl)n3n(c2=O)CCCC3)c(F)cc1Cl [Example 1-222]	5 (Herbicidal effect/phytotoxicity was 90% or greater)	5 (Herbicidal effect/phytotoxicity was 90% or greater)	5 (Herbicidal effect/phytotoxicity was 90% or greater)	5 (Herbicidal effect/phytotoxicity was 90% or greater)	5 (Herbicidal effect/phytotoxicity was 90% or greater)	5 (Herbicidal effect/phytotoxicity was 90% or greater)	2 (Herbicidal effect/phytotoxicity was 30% to 50%)	5 (Herbicidal effect/phytotoxicity was 90% or greater)	5 (Herbicidal effect/phytotoxicity was 90% or greater)	5 (Herbicidal effect/phytotoxicity was 90% or greater)
CC(C)=CCOc1cc(-c2c(Cl)n3n(c2=O)CCCC3)c(F)cc1Cl [Example 1-219]	5 (Herbicidal effect/phytotoxicity was 90% or greater)	5 (Herbicidal effect/phytotoxicity was 90% or greater)	5 (Herbicidal effect/phytotoxicity was 90% or greater)	5 (Herbicidal effect/phytotoxicity was 90% or greater)	5 (Herbicidal effect/phytotoxicity was 90% or greater)	5 (Herbicidal effect/phytotoxicity was 90% or greater)	2 (Herbicidal effect/phytotoxicity was 30% to 50%)	5 (Herbicidal effect/phytotoxicity was 90% or greater)	5 (Herbicidal effect/phytotoxicity was 90% or greater)	5 (Herbicidal effect/phytotoxicity was 90% or greater)
COc1cc(-c2c(Cl)n3n(c2=O)CCCC3)c(F)cc1F [Example 1-87]	5 (Herbicidal effect/phytotoxicity was 90% or greater)	5 (Herbicidal effect/phytotoxicity was 90% or greater)	5 (Herbicidal effect/phytotoxicity was 90% or greater)	5 (Herbicidal effect/phytotoxicity was 90% or greater)	5 (Herbicidal effect/phytotoxicity was 90% or greater)	5 (Herbicidal effect/phytotoxicity was 90% or greater)	2 (Herbicidal effect/phytotoxicity was 30% to 50%)	5 (Herbicidal effect/phytotoxicity was 90% or greater)	5 (Herbicidal effect/phytotoxicity was 90% or greater)	5 (Herbicidal effect/phytotoxicity was 90% or greater)
C#CCOc1cc(-c2c(Cl)n3n(c2=O)CCCC3)ccc1Cl [Example 1-62]	5 (Herbicidal effect/phytotoxicity was 90% or greater)	5 (Herbicidal effect/phytotoxicity was 90% or greater)	5 (Herbicidal effect/phytotoxicity was 90% or greater)	5 (Herbicidal effect/phytotoxicity was 90% or greater)	5 (Herbicidal effect/phytotoxicity was 90% or greater)	5 (Herbicidal effect/phytotoxicity was 90% or greater)	0 (Herbicidal effect/phytotoxicity was 0% to 10%)	5 (Herbicidal effect/phytotoxicity was 90% or greater)	5 (Herbicidal effect/phytotoxicity was 90% or greater)	5 (Herbicidal effect/phytotoxicity was 90% or greater)
N#CCOc1cc(-c2c(Cl)n3n(c2=O)CCCC3)c(F)cc1Cl [Example 1-171]	5 (Herbicidal effect/phytotoxicity was 90% or greater)	5 (Herbicidal effect/phytotoxicity was 90% or greater)	5 (Herbicidal effect/phytotoxicity was 90% or greater)	5 (Herbicidal effect/phytotoxicity was 90% or greater)	5 (Herbicidal effect/phytotoxicity was 90% or greater)	5 (Herbicidal effect/phytotoxicity was 90% or greater)	3 (Herbicidal effect/phytotoxicity was 50% to 70%)	5 (Herbicidal effect/phytotoxicity was 90% or greater)	5 (Herbicidal effect/phytotoxicity was 90% or greater)	5 (Herbicidal effect/phytotoxicity was 90% or greater)
COc1cc(-c2c(Cl)n3n(c2=O)CCCC3)c(F)cc1Cl [Example 1-140]	5 (Herbicidal effect/phytotoxicity was 90% or greater)	5 (Herbicidal effect/phytotoxicity was 90% or greater)	5 (Herbicidal effect/phytotoxicity was 90% or greater)	5 (Herbicidal effect/phytotoxicity was 90% or greater)	5 (Herbicidal effect/phytotoxicity was 90% or greater)	5 (Herbicidal effect/phytotoxicity was 90% or greater)	2 (Herbicidal effect/phytotoxicity was 30% to 50%)	5 (Herbicidal effect/phytotoxicity was 90% or greater)	5 (Herbicidal effect/phytotoxicity was 90% or greater)	5 (Herbicidal effect/phytotoxicity was 90% or greater)
CC(C)COc1cc(-c2c(Cl)n3n(c2=O)CCCC3)c(F)cc1Cl [Example 1-156]	5 (Herbicidal effect/phytotoxicity was 90% or greater)	5 (Herbicidal effect/phytotoxicity was 90% or greater)	5 (Herbicidal effect/phytotoxicity was 90% or greater)	5 (Herbicidal effect/phytotoxicity was 90% or greater)	5 (Herbicidal effect/phytotoxicity was 90% or greater)	5 (Herbicidal effect/phytotoxicity was 90% or greater)	2 (Herbicidal effect/phytotoxicity was 30% to 50%)	5 (Herbicidal effect/phytotoxicity was 90% or greater)	5 (Herbicidal effect/phytotoxicity was 90% or greater)	5 (Herbicidal effect/phytotoxicity was 90% or greater)
O=c1c(-c2cc(OC3CCCC3)c(Cl)cc2F)c(Cl)n2n1CCCCC2 [Example 1-182]	–	–	–	–	–	–	1 (Herbicidal effect/phytotoxicity was 10% to 30%)	5 (Herbicidal effect/phytotoxicity was 90% or greater)	5 (Herbicidal effect/phytotoxicity was 90% or greater)	5 (Herbicidal effect/phytotoxicity was 90% or greater)
C=C(COc1cc(-c2c(Cl)n3n(c2=O)CCCC3)c(F)cc1Cl)c1ccc(OCC)c(F)c1F [Example 1-230]	–	–	–	–	–	–	0 (Herbicidal effect/phytotoxicity was 0% to 10%)	5 (Herbicidal effect/phytotoxicity was 90% or greater)	5 (Herbicidal effect/phytotoxicity was 90% or greater)	5 (Herbicidal effect/phytotoxicity was 90% or greater)
